According to US20180000085A1, “USE OF PICOLINAMIDE COMPOUNDS WITH FUNGICIDAL ACTIVITY” (DOW AGROSCIENCES LLC, priority 2014, published 2018):

Assays:
Zymoseptoria tritici = assay: Leaf blotch of wheat (SEPTTR) disease control on wheat seedlings; format: in vivo; design: key to SEPTTR 1DP, HV activity at 100 ppm (% control rating) / SEPTTR 3DC, HV activity at 100 ppm (% control rating) / SEPTTR disease control, 1DP / SEPTTR disease control, 3DC / SEPTTR 1DP disease control rating, HV activity / SEPTTR 3DC disease control rating, HV activity / SEPTTR 3DC, LV activity at 125.1 g/H (% Control rating) / SEPTTR 1DP, LV activity at 125.1 g/H (% Control rating) / SEPTTR 1DP disease control rating, LV activity at 125.1 g/H / SEPTTR 3DC disease control rating, LV activity at 125.1 g/H / SEPTTR 3DC disease control rating, HV activity at 100 ppm / SEPTTR 1DP disease control rating, HV activity at 100 ppm / HV activity at 100 ppm SEPTTR 3DC (disease control rating) / HV activity at 100 ppm SEPTTR 1DP (disease control rating) / LV activity at 125.1 g/H SEPTTR 1DP (disease control rating) / LV activity at 125.1 g/H SEPTTR 3DC (disease control rating): A: > 80; B: ≤ 80; C: Not Tested; D: No Activity Observed in the Reported Assay; settings: for HV activity at 100 ppm SEPTTR 1DP (disease control rating) / HV activity at 100 ppm SEPTTR 3DC (disease control rating): HV application; for HV activity at 100 ppm SEPTTR 1DP (disease control rating) / SEPTTR 1DP disease control rating, HV activity / SEPTTR 1DP, LV activity at 125.1 g/H (% Control rating) / LV activity at 125.1 g/H SEPTTR 1DP (disease control rating): 1 Day Protectant; for HV activity at 100 ppm SEPTTR 1DP (disease control rating) / HV activity at 100 ppm SEPTTR 3DC (disease control rating) / SEPTTR 1DP disease control rating, HV activity / SEPTTR 3DC disease control rating, HV activity / LV activity at 125.1 g/H SEPTTR 1DP (disease control rating) / LV activity at 125.1 g/H SEPTTR 3DC (disease control rating): wheat leaf blotch; for HV activity at 100 ppm SEPTTR 3DC (disease control rating) / SEPTTR 3DC disease control rating, HV activity / SEPTTR 3DC, LV activity at 125.1 g/H (% Control rating) / LV activity at 125.1 g/H SEPTTR 3DC (disease control rating): 3 Day Curative; for SEPTTR 1DP disease control rating, HV activity / SEPTTR 3DC disease control rating, HV activity: HV application at 100 ppm; for SEPTTR 1DP, LV activity at 125.1 g/H (% Control rating) / SEPTTR 3DC, LV activity at 125.1 g/H (% Control rating) / LV activity at 125.1 g/H SEPTTR 1DP (disease control rating) / LV activity at 125.1 g/H SEPTTR 3DC (disease control rating): low volume application
Procedure: (§1) All fungicides were evaluated using the aforementioned method for their activity vs. all target diseases, unless stated otherwise. Wheat leaf blotch and brown rust activity were also evaluated using track spray applications, in which case the fungicides were formulated as EC formulations, containing 0.1% Trycol 5941 in the spray solutions. Wheat plants (variety Yuma) were grown from seed in a greenhouse in 50% mineral soil/50% soil-less Metro mix until the first leaf was fully emerged, with 7-10 seedlings per pot. These plants were inoculated with an aqueous spore suspension of Zymoseptoria tritici either prior to or after fungicide treatments. After inoculation the plants were kept in 100% relative humidity (one day in a dark dew chamber followed by two to three days in a lighted dew chamber at 20° C.) to permit spores to germinate and infect the leaf. The plants were then transferred to a greenhouse set at 20° C. for disease to develop. When disease symptoms were fully expressed on the 1st leaves of untreated plants, infection levels were assessed on a scale of 0 to 100 percent disease severity. Percent disease control was calculated using the ratio of disease severity on treated plants relative to untreated plants.

Puccinia triticina = assay: Wheat brown rust (PUCCRT) disease control on wheat seedlings; format: in vivo; design: key to PUCCRT 3DC, HV activity at 100 ppm (% control rating) / PUCCRT disease control, 3DC / PUCCRT 1DP disease control rating, HV activity / PUCCRT 3DC disease control rating, HV activity / PUCCRT 3DC, LV activity at 125.1 g/H (% Control rating) / PUCCRT 1DP, LV activity at 125.1 g/H (% Control rating) / PUCCRT 3DC disease control rating, LV activity at 125.1 g/H / PUCCRT 1DP disease control rating, LV activity at 125.1 g/H / PUCCRT 3DC disease control rating, HV activity at 100 ppm / PUCCRT 1DP disease control rating, HV activity at 100 ppm / HV activity at 100 ppm PUCCRT 3DC (disease control rating) / LV activity at 125.1 g/H PUCCRT 1DP (disease control rating) / LV activity at 125.1 g/H PUCCRT 3DC (disease control rating): A: > 80; B: ≤ 80; C: Not Tested; D: No Activity Observed in the Reported Assay; settings: for HV activity at 100 ppm PUCCRT 1DP (disease control rating) / HV activity at 100 ppm PUCCRT 3DC (disease control rating): HV application; for HV activity at 100 ppm PUCCRT 1DP (disease control rating) / PUCCRT 1DP disease control rating, HV activity / PUCCRT 1DP, LV activity at 125.1 g/H (% Control rating) / LV activity at 125.1 g/H PUCCRT 1DP (disease control rating): 1 Day Protectant; for HV activity at 100 ppm PUCCRT 1DP (disease control rating) / HV activity at 100 ppm PUCCRT 3DC (disease control rating) / PUCCRT 1DP disease control rating, HV activity / PUCCRT 3DC disease control rating, HV activity / LV activity at 125.1 g/H PUCCRT 1DP (disease control rating) / LV activity at 125.1 g/H PUCCRT 3DC (disease control rating): wheat brown rust; for HV activity at 100 ppm PUCCRT 3DC (disease control rating) / PUCCRT 3DC disease control rating, HV activity / PUCCRT 3DC, LV activity at 125.1 g/H (% Control rating) / LV activity at 125.1 g/H PUCCRT 3DC (disease control rating): 3 Day Curative; for PUCCRT 1DP disease control rating, HV activity / PUCCRT 3DC disease control rating, HV activity: HV application at 100 ppm; for PUCCRT 1DP, LV activity at 125.1 g/H (% Control rating) / PUCCRT 3DC, LV activity at 125.1 g/H (% Control rating) / LV activity at 125.1 g/H PUCCRT 1DP (disease control rating) / LV activity at 125.1 g/H PUCCRT 3DC (disease control rating): low volume application
Procedure: as §1, with “plants. Example B: Evaluation of Fungicidal Activity: Wheat Brown Rust (Puccinia triticina; Synonym: Puccinia recondita f. sp. Tritici; Bayer Code PUCCRT) Wheat plants (variety Yuma) were grown from seed in a greenhouse in 50% mineral soil/50% soil-less Metro mix until the first leaf was fully emerged, with 7-10 seedlings per pot. These plants were inoculated with an aqueous spore suspension of Puccinia triticina either prior to or after fungicide treatments. […] The plants were then transferred to a greenhouse set at 24° C. for disease to develop. Fungicide formulation, application and disease assessment followed the procedures as described in the Example A.” for “plants.”

[1] = high volume application, 100 ppm, 1 day protectant
[2] = high volume application, 100 ppm, 3 day curative

Structure (SMILES)	SEPTTR 1DP disease control rating, HV activity (Zymoseptoria tritici)	SEPTTR 3DC disease control rating, HV activity (Zymoseptoria tritici)	PUCCRT 1DP disease control rating, HV activity (Puccinia triticina)	PUCCRT 3DC disease control rating, HV activity (Puccinia triticina)	SEPTTR 1DP, LV activity at 125.1 g/H (% Control rating) (Zymoseptoria tritici)	SEPTTR 3DC, LV activity at 125.1 g/H (% Control rating) (Zymoseptoria tritici)	PUCCRT 1DP, LV activity at 125.1 g/H (% Control rating) (Puccinia triticina)	PUCCRT 3DC, LV activity at 125.1 g/H (% Control rating) (Puccinia triticina)	other results
COc1ccnc(C(=O)N[C@@H](C)C(=O)O[C@@H](C)[C@@H](CC(C)C)OCC2CC2)c1O [Cmpd 1045]									HV activity at 100 ppm SEPTTR 1DP (disease control rating) (Zymoseptoria tritici; 100 ppm): D; HV activity at 100 ppm SEPTTR 3DC (disease control rating) (Zymoseptoria tritici; 100 ppm): B (≤ 80); HV activity at 100 ppm PUCCRT 1DP (disease control rating) (Puccinia triticina; 100 ppm): A (> 80); HV activity at 100 ppm PUCCRT 3DC (disease control rating) (Puccinia triticina; 100 ppm): A (> 80)
CCC(CC)C(Oc1ccc(-c2ccccc2)cc1)C(C)OC(=O)C(C)NC(=O)c1nccc(OC)c1O (stereo not shown) [Cmpd 387]	D	D	B (≤ 80)	D					
COc1ccnc(C(=O)N[C@@H](C)C(=O)O[C@@H](C)[C@H](Oc2cccc3ccccc23)C(C)C)c1OC(C)=O [Cmpd 631]					B (≤ 80)	D	A (> 80)	A (> 80)	
COc1ccnc(C(=O)N[C@@H](C)C(=O)O[C@@H](C)[C@H](Oc2ccc(Cl)cc2Cl)C(C)C)c1O [Cmpd 358]	B (≤ 80)	B (≤ 80)	B (≤ 80)	B (≤ 80)					
CC[C@H](C)[C@H](NC(=O)c1nccc(OC)c1OC(C)=O)C(=O)O[C@@H](C)[C@H](Oc1cc(F)ccc1F)C(C)C [Cmpd 630]					D	D	A (> 80)	A (> 80)	
C=CC(OC(=O)C(C)NC(=O)c1nccc(OC)c1O)C(Oc1ccccc1)C(C)C (stereo not shown) [Cmpd 1033]									HV activity at 100 ppm SEPTTR 1DP (disease control rating) (Zymoseptoria tritici; 100 ppm): A (> 80); HV activity at 100 ppm SEPTTR 3DC (disease control rating) (Zymoseptoria tritici; 100 ppm): B (≤ 80); HV activity at 100 ppm PUCCRT 1DP (disease control rating) (Puccinia triticina; 100 ppm): A (> 80); HV activity at 100 ppm PUCCRT 3DC (disease control rating) (Puccinia triticina; 100 ppm): A (> 80)
COc1ccnc(C(=O)N[C@@H](C)C(=O)O[C@@H](C)[C@@H](Cc2ccccc2)Oc2ccccc2)c1O [Cmpd 345]	D	B (≤ 80)	A (> 80)	A (> 80)					
CC[C@H](CC1CCCC1)[C@@H](OCC1CC1)[C@H](C)OC(=O)[C@H](C)NC(=O)c1nccc(OC)c1OC(C)=O [Cmpd 508]					B (≤ 80)	B (≤ 80)	B (≤ 80)	B (≤ 80)	
COc1ccnc(C(=O)N[C@@H](C)C(=O)O[C@@H](C)[C@H](Oc2cc(F)cc(Cl)c2)c2ccccc2)c1OCOC(C)=O [Cmpd 641]					A (> 80)	A (> 80)	A (> 80)	B (≤ 80)	
COc1ccnc(C(=O)N[C@@H](C)C(=O)O[C@@H](C)COc2ccccc2)c1O [Cmpd 335]	B (≤ 80)	D	A (> 80)	A (> 80)					
C=CC[C@@H](OCC(=C)C)[C@H](C)OC(=O)[C@H](C)NC(=O)c1nccc(OC)c1OCOC(C)=O [Cmpd 1082]									LV activity at 125.1 g/H SEPTTR 1DP (disease control rating) (Zymoseptoria tritici): D; LV activity at 125.1 g/H SEPTTR 3DC (disease control rating) (Zymoseptoria tritici): D; LV activity at 125.1 g/H PUCCRT 1DP (disease control rating) (Puccinia triticina): B (≤ 80); LV activity at 125.1 g/H PUCCRT 3DC (disease control rating) (Puccinia triticina): A (> 80)
COc1ccnc(C(=O)N[C@@H](C)C(=O)O[C@@H](C)[C@H](Oc2ccc(Cl)cc2Cl)C(C)C)c1OCOC(C)=O [Cmpd 562]					D	A (> 80)	A (> 80)	A (> 80)	
COc1ccnc(C(=O)N[C@@H](C)C(=O)O[C@@H](C)[C@@H](Cc2ccccc2)OC)c1O [Cmpd 342]	D	B (≤ 80)	B (≤ 80)	A (> 80)					
CCC[C@@H](Oc1cccc(OC)c1)[C@H](C)OC(=O)[C@H](C)NC(=O)c1nccc(OC)c1OC(C)=O [Cmpd 1063]									LV activity at 125.1 g/H SEPTTR 1DP (disease control rating) (Zymoseptoria tritici): B (≤ 80); LV activity at 125.1 g/H SEPTTR 3DC (disease control rating) (Zymoseptoria tritici): A (> 80); LV activity at 125.1 g/H PUCCRT 1DP (disease control rating) (Puccinia triticina): A (> 80); LV activity at 125.1 g/H PUCCRT 3DC (disease control rating) (Puccinia triticina): A (> 80)
C=CCC(Oc1ccc(Cl)cc1Cl)C(C)OC(=O)C(C)NC(=O)c1nccc(OC)c1O (stereo not shown) [Cmpd 439]	B (≤ 80)	D	A (> 80)	A (> 80)					
COc1ccnc(C(=O)N[C@@H](C)C(=O)O[C@@H](C)[C@H](OCC(C)C)C2CCCC2)c1O [Cmpd 844]									SEPTTR 1DP disease control rating, HV activity at 100 ppm (Zymoseptoria tritici; [1]): B (≤ 80); SEPTTR 3DC disease control rating, HV activity at 100 ppm (Zymoseptoria tritici; [2]): A (> 80); PUCCRT 1DP disease control rating, HV activity at 100 ppm (Puccinia triticina; [1]): A (> 80); PUCCRT 3DC disease control rating, HV activity at 100 ppm (Puccinia triticina; [2]): A (> 80)
